Experimental data: patent US4732977A, “Carbapenem antibiotics” (priority 1986, dated 1988)
In brackets after ≈: the same amount, converted by molar mass. Counter-ions that a name gives are not always drawn. Like-named read-outs stand apart in the source and are kept apart here.

What was measured:
P. aeruginosa A-20599 = experiment: Protective effect in intramuscular treatment of infected mice; assay type: in vivo; conditions: Pseudomonas aeruginosa, A20599, im, i.m. 0 and 2 h postinfection, challenge 1.4 × 10^5 organisms, * = historical data, read-out: PD50/Treatment
[1] = Urinary recovery after intramuscular administration to mice; assay type: in vivo; conditions: mouse, urine, im, 20 mg/kg, 20 mg/kg i.m.
Text: | a single test; 4 mice per compound.

E. coli A20341-1 = experiment: M.I.C., tube dilution; assay type: cell-based; conditions: Escherichia coli, A203411; 10^-4; read-out: MIC
P. mirabilis A-9900 [2] = experiment: Protective effect in intramuscular treatment of infected mice; assay type: in vivo; conditions: Proteus mirabilis
Protocol: (§1) The PD50 (dose in mg/kg required to give protection to 50% of the infected mice) is indicated.
with drugs 0 and 2 hours postinfection.
(§2) The PD50 (dose in mg/kg) required to give protection to 50% of the infected mice is indicated.

S. aureus A-9537 = experiment: M.I.C., tube dilution; assay type: cell-based; conditions: Staphylococcus aureus
S. faecalis A20688 = experiment: M.I.C., tube dilution; assay type: cell-based; conditions: Enterococcus faecalis, A20688, overnight incubation at 37° C., Nutrient Broth; read-out: MIC
S. faecalis A-20688 = experiment: Protective effect in intramuscular treatment of infected mice; assay type: in vivo; conditions: Enterococcus faecalis, A20688, im, i.m. 0 and 2 h postinfection, challenge 2.3 × 10^8 organisms, * = historical data, read-out: PD50/Treatment
B. fragilis A22863 = experiment: M.I.C., tube dilution; assay type: cell-based; conditions: Bacteroides fragilis, overnight incubation at 37° C., Nutrient Broth
P. morganii A15153 = experiment: M.I.C., tube dilution; assay type: cell-based; conditions: Morganella morganii, A15153
P. aeruginosa A-20481 = experiment: Protective effect in intramuscular treatment of infected mice; assay type: in vivo; conditions: Pseudomonas aeruginosa, A20481, im, i.m. 0 and 2 h postinfection, challenge 5.4 × 10^4 organisms, * = historical data, read-out: PD50/Treatment
B. fragilis A22862 = experiment: M.I.C., tube dilution; assay type: cell-based; conditions: Bacteroides fragilis, overnight incubation at 37° C., Nutrient Broth
S. aureus A-9606 = experiment: Protective effect in intramuscular treatment of infected mice; assay type: in vivo; conditions: Staphylococcus aureus, read-out: PD50/treatment
Protocol: as §1
with drugs 0 and 2 hours postinfection.
as §2

P. aeruginosa A-9843A [3] = experiment: M.I.C., tube dilution; assay type: cell-based; conditions: Pseudomonas aeruginosa, A9843A, overnight incubation at 37° C., Nutrient Broth
P. vulgaris A21559 = experiment: M.I.C., tube dilution; assay type: cell-based; conditions: Proteus vulgaris, A21559, overnight incubation at 37° C., Nutrient Broth; read-out: MIC
H. influenzae A21518 = experiment: M.I.C., tube dilution; assay type: cell-based; conditions: Haemophilus influenzae, overnight incubation at 37° C., Nutrient Broth
P. aeruginosa A-9843a [4] = experiment: animal or person; assay type: in vivo, mice; conditions: Pseudomonas aeruginosa, A9843A, im
Protocol: as §1
with drugs 0 and 2 hours postinfection.
as §2

E. coli A15119 = experiment: M.I.C., tube dilution; assay type: cell-based; conditions: Escherichia coli, A15119, 10^-4 dil.
[5] = Blood levels in mice after intramuscular administration;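 further: compounds dissolved in 0.1 M phosphate buffer at pH 7, data from one experiment using four mice for each compound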
Text: Compounds were solubilized in 0.1 M phosphate buffer pH 7.
a single test; 4 mice used per compound.
Compounds were solubilized in 0.1 M phosphate buffer, pH 7.
on a single test; 4 mice per compound.

E. coli A-15119 = experiment: Protective effect in intramuscular treatment of infected mice; assay type: in vivo; conditions: Escherichia coli
Protocol: as §1
with drugs 0 and 2 hours postinfection.
as §2

[6] = Toxicity after intracranial administration to mice; conditions: mouse, in vivo
B. fragilis A22053 = experiment: M.I.C., tube dilution; assay type: cell-based; conditions: Bacteroides fragilis, overnight incubation at 37° C., Nutrient Broth
in vivo = conditions: mouse
H. influenzae A-9833 = experiment: M.I.C., tube dilution; assay type: cell-based; conditions: Haemophilus influenzae, A9833; overnight incubation at 37° C., Nutrient Broth
P. aeruginosa A21213 = experiment: M.I.C., tube dilution; assay type: cell-based; conditions: Pseudomonas aeruginosa, A21213, overnight incubation at 37° C., Nutrient Broth; read-out: MIC
E. cloacae A-9656 = experiment: M.I.C., tube dilution; assay type: cell-based; conditions: Enterobacter cloacae, A9656, overnight incubation at 37° C., Nutrient Broth; read-out: MIC
S. pyogenes A-9604 = experiment: M.I.C., tube dilution; assay type: cell-based; conditions: Streptococcus pyogenes, A9604; overnight incubation at 37° C., Nutrient Broth; read-out: MIC
B. fragilis A22696 = experiment: M.I.C., tube dilution; assay type: cell-based; conditions: Bacteroides fragilis, overnight incubation at 37° C., Nutrient Broth
E. cloacae A-9659 = experiment: M.I.C., tube dilution; assay type: cell-based; conditions: Enterobacter cloacae, A9659; overnight incubation at 37° C., Nutrient Broth; read-out: MIC
P. rettgeri A22424 = experiment: M.I.C., tube dilution; assay type: cell-based; conditions: Providencia rettgeri, A22424; overnight incubation at 37° C., Nutrient Broth; read-out: MIC
[7] = system: S. aureus A15097 (Meth-res.); experiment: M.I.C., tube dilution; assay type: cell-based; conditions: Staphylococcus aureus, overnight incubation at 37° C.
P. aeruginosa A24081 = experiment: Protective effect in intramuscular treatment of infected mice; assay type: in vivo; conditions: Pseudomonas aeruginosa, A24081, im, read-out: PD50/treatment
Text: as §2

P. mirabilis A-9900 [8] = experiment: M.I.C., tube dilution; assay type: cell-based; conditions: Proteus mirabilis, A9900, overnight incubation at 37° C., Nutrient Broth; read-out: MIC
K. pneumoniae A9664 = experiment: Protective effect in intramuscular treatment of infected mice; assay type: in vivo; conditions: Klebsiella pneumoniae, im, K. pneumoniae A9664, read-out: PD50/treatment
Text: as §2

K. pneumoniae A20468 = experiment: M.I.C., tube dilution; assay type: cell-based; conditions: Klebsiella pneumoniae, A20468, overnight incubation at 37° C., Nutrient Broth; read-out: MIC
S. marcescens A20019 = experiment: M.I.C., tube dilution; assay type: cell-based; conditions: Serratia marcescens, A20019; overnight incubation at 37° C., Nutrient Broth; read-out: MIC
K. pneumoniae A-9664 = experiment: M.I.C., tube dilution; assay type: cell-based; conditions: Klebsiella pneumoniae, A9664, overnight incubation at 37° C., Nutrient Broth; read-out: MIC

## C[C@@H](O)[C@H]1C(=O)N2C(C(=O)[O-])=C(SCc3cc[n+](C)cc3)C[C@H]12 [Example 1, 1-Methyl-4-[2-carboxy-6α-[1(R)-hydroxyethyl]-7-oxo-1-azabicyclo[3.2.0]hept-2-en-3-thiomethyl]pyridinium hydroxide inner salt]
P. aeruginosa A-20599
  ED50: 0.7 mg/kg
[1]; 0-3 hours
  dose excreted at 3 h: 26.1%
[1]; 0-24 hours
  dose excreted at 24 h: 26.7 ± 6.7%
[1]; 3-6 hours
  dose excreted at 6 h: 0.5%
[1]; 6-24 hours
  dose excreted at 24 h: 0.1%
E. coli A20341-1
  MIC: 0.03 µg/mL
P. mirabilis A-9900 [2]; A9900, im, read-out: PD50/Treatment
  ED50: 3.3 mg/kg
S. aureus A-9537; A9537, overnight incubation at 37° C., Nutrient Broth
  MIC: 0.13 µg/mL
S. aureus A-9537; A9537, +50% serum
  MIC: 0.03 µg/mL
S. faecalis A20688
  MIC: 0.5 µg/mL
S. faecalis A-20688
  ED50: 3.3 mg/kg
B. fragilis A22863
  MIC: 0.03 µg/mL
P. morganii A15153
  MIC: 0.13 µg/mL
P. aeruginosa A-20481
  ED50: 0.63 mg/kg
B. fragilis A22862
  MIC: 0.03 µg/mL
S. aureus A-9606; A9606, im
  ED50: 0.09 mg/kg
P. aeruginosa A-9843A [3]
  MIC: 4 µg/mL
P. vulgaris A21559
  MIC: 0.13 µg/mL
H. influenzae A21518
  MIC: 16 µg/mL
P. aeruginosa A-9843a [4]; mice, i.m. 0 and 2 h postinfection, challenge 5.5 × 10^4 organisms, * = historical data, read-out: PD50/Treatment
  ED50: 0.3 mg/kg
E. coli A15119
  MIC: 0.06 µg/mL
[5]; mice, 20 mg/kg i.m. (table 9)
  AUC: 6300 ng·h/mL
  T1/2: 10 min
[5]; mouse, blood, im, 20 mg/kg
  AUC: 6300 ng·h/mL
  Cmax: 14000 ng/mL
[5]; mouse, in vivo, im, 20 mg/kg
  half-life: 10 min
E. coli A-15119; A15119, im, 3.5 h, read-out: PD50/Treatment
  ED50: 0.6 mg/kg
[6]
  LD50: 14 mg/kg
B. fragilis A22053
  MIC: 0.03 µg/mL
In vivo
  NOAEL: 5 mg/kg
H. influenzae A-9833
  MIC: 16 µg/mL
P. aeruginosa A21213
  MIC: 1 µg/mL

## C[C@@H](O)[C@H]1C(=O)N2C(C(=O)[O-])=C(SCc3cccc[n+]3C)C[C@H]12 [Example 4, 3-(N-Methylpyridine-2-yl-methanethio)-6α-[1-(R)-hydroxyethyl]-7-oxo-1-azabicyclo(3.2.0)hept-2-ene-2-carboxylate]
E. cloacae A-9656
  MIC: 0.06 µg/mL (≈ 0.179 µM)
P. mirabilis A-9900 [2]; im, mice, i.m., P. mirabilis A9900, read-out: PD50/treatment
  ED50: 4 mg/kg
S. aureus A-9537; A9537, +50% serum, read-out: MIC
  MIC: 0.03 µg/mL (≈ 0.0897 µM)
S. faecalis A20688
  MIC: 0.5 µg/mL (≈ 1.5 µM)
S. pyogenes A-9604
  MIC: 1 ng/mL (≈ 0.00299 µM)
B. fragilis A22696
  MIC: 0.5 µg/mL (≈ 1.5 µM)
E. cloacae A-9659
  MIC: 0.03 µg/mL (≈ 0.0897 µM)
P. rettgeri A22424
  MIC: 0.13 µg/mL (≈ 0.389 µM)
B. fragilis A22862
  MIC: 0.06 µg/mL (≈ 0.179 µM)
S. aureus A-9606; im, mice, i.m., S. aureus A9606
  ED50: 0.1 mg/kg
[7]
  MIC: 4 µg/mL (≈ 12 µM)
P. vulgaris A21559
  MIC: 0.016 µg/mL (≈ 0.0478 µM)
P. aeruginosa A24081
  ED50: 0.2 mg/kg
P. mirabilis A-9900 [8]
  MIC: 0.06 µg/mL (≈ 0.179 µM)
H. influenzae A21518
  MIC: 2 µg/mL (≈ 5.98 µM)
P. aeruginosa A-9843a [4]; in Mus musculus, read-out: PD50/treatment
  ED50: 0.2 mg/kg
K. pneumoniae A9664
  ED50: 3 mg/kg
[5]; mouse, blood, im, 20 mg/kg
  AUC: 7700 ng·h/mL
  Cmax: 15500 ng/mL
  half-life: 11 min
E. coli A-15119; im, mice, i.m., E. coli A15119, read-out: PD50/treatment
  ED50: 0.4 mg/kg
K. pneumoniae A20468
  MIC: 0.03 µg/mL (≈ 0.0897 µM)
S. marcescens A20019
  MIC: 0.03 µg/mL (≈ 0.0897 µM)
K. pneumoniae A-9664
  MIC: 0.03 µg/mL (≈ 0.0897 µM)
H. influenzae A-9833
  MIC: 2 µg/mL (≈ 5.98 µM)
P. aeruginosa A21213
  MIC: 0.13 µg/mL (≈ 0.389 µM)
